# According to PMC7179302, “Lead Optimization of Dehydroemetine for Repositioned Use in Malaria” (Antimicrobial Agents and Chemotherapy, 2020):
# Counter-ions that a name gives are not always drawn.
# Legend:
# Format in all cases: cell-based
# [1] = system: Plasmodium falciparum rings and trophozoites/schizonts; experiment: Stage-specific profiling using synchronized cultures; settings: highest concentration tested, 24 h exposure, read 24 h after postexposure wash
# Description: Parasite cultures with ≥80% trophozoites and ≥80% rings were obtained by synchronization with 5% sorbitol ([42]). The cultures were synchronized twice, at 0 h and 31 h, to obtain young rings which were up to 3 h old. To obtain early schizont stages, the cultures were synchronized twice, with the second synchronization being 6 to 8 h after the first. […] The plates were washed 4 times after the incubation in order to dilute the drug concentration by >1,000-fold. The plates were incubated for another 24 h at 37°C, following which SYBR green staining was used to read the plates as described above.
# [2] = system: P. falciparum strain 3D7A; experiment: 3H-hypoxanthine incorporation assay, strain 3D7A; settings: Plasmodium falciparum, read-out: IC50 (μM) 3D7A
# Description: The cross-resistance assay used relies on the parasites’ incorporation of labeled 3H-hypoxanthine, which is proportional to P. falciparum growth. In vitro cross-resistance of the compounds is measured as the ratio between the IC50 for the tested P. falciparum strain and the IC50 for strain 3D7A. Every replicate from a multidrug-resistant (MDR) strain involved a simultaneous determination using a 3D7A replicate to avoid any artifact linked to experimental conditions.
# The three strains used for the cross-resistance assay were 3D7A, Dd2, and W2, based on their resistance profiles; the assay was carried out by GSK, Tres Cantos. Strain 3D7A is chloroquine sensitive, strain Dd2 is resistant to chloroquine, mefloquine, and pyrimethamine ([57]), and strain W2 is resistant to chloroquine, quinine, pyrimethamine, cycloguanil, and sulfadoxine (from the Malaria Research and Reference Reagent Resource Center [MR4]) ([58]). A culture of red blood cells (RBCs) parasitized by the corresponding strain (0.5% parasitemia, 2% hematocrit) in RPMI 1640, […], and 5 μM hypoxanthine was exposed to 9 dilutions (3-fold serial dilutions) of the compound starting at 5 μM. One hundred microliters of culture volume was plated in 96-well flat-bottom microtiter plates with 0.5 μl drug (200× stock in DMSO). Plates were incubated for 24 h at 37°C, 5% CO2, 5% O2, 90% N2. Next, 3H-hypoxanthine was added and plates were incubated for another 24-h period. After that, parasites were harvested on a glass fiber filter using a TomTec cell harvester 96. Filters were dried, and melt-on scintillator sheets were used to determine the incorporation of 3H-hypoxanthine. Radioactivity was measured using a MicroBeta counter. […] IC50 values were determined using the Grafit 7 program ([41]).
# [3] = system: male gametocytes in P. falciparum strain NF54; experiment: Dual gamete formation assay, male gametocytes (exflagellation); settings: Plasmodium falciparum, 48 h incubation
# Description: (§1) A bioassay was performed to assess the malaria transmission-blocking potential of compounds on P. falciparum strain NF54 by estimating their ability to prevent male mature gametocytes from progressing to male microgametes or/and to inhibit female gamete activation, as indicators of gametocyte functionality. The NF54 strain was selected for its increased ability to produce gametocytes under in vitro conditions ([45]). The activation of male gametocytes into mature microgametes is evaluated by the process of exflagellation (extrusion of rapidly waving flagellum-like microgametes from the infected erythrocyte). The activation of female gametocytes is evaluated based on the specific expression of the P. falciparum s25 (Pfs25) protein at the surface of the female activated gametes ([46]). […]
# (§2) Asexual cultures of P. falciparum strain NF54 parasites were used to seed gametocyte cultures at 0.5% parasitemia, 4% hematocrit in a 50-ml total volume under 3% O2, 5% CO2, 92% N2 gas. […] Plates were analyzed to detect exflagellation centers. […] Then, plates were analyzed to detect female activated gametes. Activation of male gametes was detected based on light changes provoked by flagellar movements that caused movement of surrounding cells. A 10-frame video was taken and then analyzed to determine these changes in cell position based on changes in pixels. […]
# [4] = system: female gametocytes in P. falciparum strain NF54; experiment: Dual gamete formation assay, female gametocytes (Pfs25 expression); settings: Plasmodium falciparum, 48 h incubation
# Description: as §1, §2
# HepG2 cells = experiment: MTT assay for cell cytotoxicity against HepG2 cells; settings: for LD50 (50% lethal dose), MTT assay: HepG2 cells, 48 h, ± SD
# Description: HepG2 cells (University of Salford stocks, purchased from American Type Culture Collection [ATCC], USA), were grown in medium consisting of RPMI 1640, 2 mM L-glutamine, HEPES, 10% fetal bovine serum, 1% nonessential amino acids, and 1% penicillin-streptomycin. Cells were calculated on a hemocytometer to make a new cell-medium solution to a concentration of 5,000 cells/100 μl, and 100 μl of this new cell solution was added into each well of the 96-well plate. After 24 h of incubation, 100-μl amounts of the drug prepared in the medium were added to the wells. This was repeated in triplicate, and the plate was incubated for a further 48 h ([56]). After the incubation period, 50 μl of MTT solution was added to each well and incubated for 3 h. The liquid in each well was aspirated carefully, 200 μl of DMSO was added to each well, and the results were read on the Ascent plate reader.
smiles,measurement,setting,value
"CCC1=C(C[C@H]2NCCc3cc(OC)c(OC)cc32)C[C@H]2c3cc(OC)c(OC)cc3CCN2C1 [(−)-R,S-dehydroemetine, (S)-2-((R)-6,7-dimethoxy-1,2,3,4-tetrahydro-isoquinolin-1-ylmethyl)-3-ethyl-9,10-dimethoxy-1,6,7,11b-tetrahydro-4H-pyrido[2,1-a]isoquinoline * dihydrobromide]",Parasitaemia (percentage) Rings,[1]; 8500 (nM per legend),50.21%
same,Parasitaemia (percentage) Trophozoites,[1]; 8500 (nM per legend),19.75%
same,IC50,[2],0.146 µM
same,IC50,[3],0.43 µM
same,IC50,[4],1.04 µM
same,"Selectivity index, LD50 HepG2 cells/IC50 parasites",HepG2 cells,2.37
same,"LD50 (50% lethal dose), MTT assay",HepG2 cells,168.07 ± 8.65 nM
"CCC1=C(C[C@@H]2NCCc3cc(OC)c(OC)cc32)C[C@H]2c3cc(OC)c(OC)cc3CCN2C1 [(−)-S,S-dehydroisoemetine, (S)-2-((S)-6,7-dimethoxy-1,2,3,4-tetrahydro-isoquinolin-1-ylmethyl)-3-ethyl-9,10-dimethoxy-1,6,7,11b-tetrahydro-4H-pyrido[2,1-a]isoquinoline * dihydrobromide]",Parasitaemia (percentage) Rings,[1]; 200 (μM per legend),70.98%
same,Parasitaemia (percentage) Trophozoites,[1]; 200 (μM per legend),24.67%
same,IC50,[2],1.03 µM
same,IC50,[3],> 10 µM
same,IC50,[4],> 10 µM
same,"Selectivity index, LD50 HepG2 cells/IC50 parasites",HepG2 cells,0.69
same,"LD50 (50% lethal dose), MTT assay",HepG2 cells,1429 ± 180 nM
